Entries after “also recorded” stand apart in the source; their conditions may differ. Structures can show the parent of a compound that is named as a salt. Where two headings read alike, the source gives them in different places.
Assays:
[1] = tested on: Vibrio percolans (MB-1272); experiment: disc-plate assay using Vibrio percolans
penicillinase = conditions: background statement; cited from earlier work
Proteus morganii 3202 = experiment: in vivo protection of infected mice; conditions: for protection of infected mice: subcutaneous, 4000 mg. × 2 doses (so in the source)
Experimental: (§1) Methods: The method employed in this characterization is as follows: Female white Swiss mice, average weight 20-23 grams, were infected intraperitoneally with 3-20 times the number of organisms calculated to be lethal for 50% of the infected control animals (3-20 LD50 doses). At the time of infection and again 6 hours later, therapy was given by the designated route. Controls of the virulence of the culture and the toxicity of the antibiotic for uninfected mice were included in the tests. Seven days after infection the test was considered complete and the amount of the antibiotic (I) that would be required to protect 50% of the infected and treated animals was calculated by the method of Knudsen and Curtis: J. Amer. Stat. Assoc. Vol. 42: page 282 (1947).
(§2) The method employed in these studies is the same as described above with regard to the in vivo characterization of 810A. The results of these tests are described below in Table XIb:
(§3) Administration was by subcutaneous injection. At the completion of the test period, usually 7 days after administration, the amount of product required to protect 50% of the mice (ED50) from this otherwise fatal injection was calculated: […]

Proteus morganii 356 [2] = experiment: mouse protection test, clinical isolate; format: in vivo, mice; conditions: subcutaneous route × 2 doses (average of two trials)
Experimental: as §1
Administration was by subcutaneous injection. At the completion of the test period, usually 7 days after administration, the amount of product required to protect 50% of the mice (ED50) from this otherwise fatal injection was calculated:
In addition to the aforementioned in vivo trials of the product, a clinical isolate of Proteus morganii 356 which is resistant to cephalosporins and capable of degrading cephalosporin C, was employed in a mouse protection test performed in the same manner as reported above.

[3] = tested on: Aerobacter cloacae (MB-2646); experiment: inactivation by cell-free filtrate; format: biochemical; conditions: for Antibiotic Activity Remaining: starting concentration 250 μg./ml.
Experimental: The ability of Antibiotic 810A and cephalosporin C to withstand the degradative effect of the culture Aerobacter cloacae (MB-2646) was also determined. This culture is gram-negative and resistant to cephalosporin C. […] The source of the inactivating substance is a 1:160 dilution of the filtrate of an 18 hour 37° C. shake culture of Aerobacter cloacae MB-2646 in nutrient broth containing 0.2% yeast extract. Table XIV, infra, indicates the percent inactivation of Antibiotic 810A, cephalothin, cephaloridine and cephalosporin C on Vibrio percolans (MB-1272) via this method:
Using the same assay procedure as described above, Table XV, infra, indicates the relative resistance of Antibiotic 810A to enzymatic inactivation by Aerobacter cloacae. The starting concentration in 250 μg./ml. Results are expressed in μg./ml.

Aerobacter aerogenes = experiment: in vivo protection of infected mice; conditions: subcutaneous route × two doses
Experimental: as §1, §2, §3

[4] = tested on: Diplococcus pneumoniae 2400; experiment: in vivo protection of infected mice; conditions: subcutaneous route × two doses
Experimental: as §1, §2, §3

Escherichia coli = experiment: in vivo protection of infected mice; conditions: subcutaneous route × two doses
Experimental: as §1, §2, §3

Klebsiella pneumoniae AD = experiment: in vivo protection of infected mice; conditions: subcutaneous route × two doses
Experimental: as §1, §2, §3

Klebsiella pneumoniae B = experiment: in vivo protection of infected mice; conditions: subcutaneous route × two doses
Experimental: as §1, §2, §3

Paracolobactrum arizonae = experiment: in vivo protection of infected mice; conditions: subcutaneous route × two doses
Experimental: as §1, §2, §3

Pasteurella multocida = experiment: in vivo protection of infected mice; conditions: subcutaneous route × two doses
Experimental: as §1, §2, §3

Proteus mirabilis = experiment: in vivo protection of infected mice; conditions: subcutaneous route × two doses
Experimental: as §1, §2, §3

Proteus vulgaris = experiment: in vivo protection of infected mice; conditions: subcutaneous route × two doses
Experimental: as §1, §2, §3

[5] = tested on: Salmonella schottmuelleri; experiment: in vivo protection of infected mice; conditions: subcutaneous route × two doses
Experimental: as §1, §2, §3

Salmonella typhosa = experiment: in vivo protection of infected mice; conditions: subcutaneous route × two doses
Experimental: as §1, §2, §3

[6] = tested on: gram-negative and gram-positive organisms; experiment: in vivo activity against infections (in words); design: species or system mice; conditions: for in vivo gram-negative potency compared with cephalothin: in general
Experimental: as §1
The method employed in these studies is the same as described above with regard to the in vivo characterization of 810A.

[7] = blood appearance and urinary excretion; format: in vivo; conditions: within four hours after administration; 240 min
Escherichia coli 236 = experiment: bacterial inactivation
Experimental: (§4) These cultures are: Escherichia coli 236, Proteus morganii 251, Proteus morganii 356 and Proteus mirabilis 241. […] In conducting the assay, individual mixtures of the organisms and one of the antibiotics were sampled after 4 hours incubation and assayed for residual antibiotic activity. The procedure is the same assay method as described above against Alcaligenes faecalis MB-9 and A. viscosus MB-12.

Proteus mirabilis 241 = experiment: bacterial inactivation
Experimental: as §4

Proteus morganii 251 = experiment: bacterial inactivation
Experimental: as §4

Proteus morganii 356 [8] = experiment: bacterial inactivation
Experimental: as §4

cephalosporinases [9] = experiment: resistance to cephalosporinases / enzymatic degradation; format: biochemical
[10] = isoelectric point and pH stability; format: physicochemical
[11] = tested on: gram-negative and gram-positive bacteria; experiment: antibacterial activity (in words); format: cell-based
Salmonella = experiment: activity against Salmonella (in words); format: cell-based
[12] = tested on: Alcaligenes faecalis (MB-9)
[13] = tested on: Alcaligenes viscosus (MB-12); conditions: 4 h
[14] = tested on: Alcaligenes faecalis (MB-9); experiment: bacterial inactivation by washed cells
[15] = tested on: Alcaligenes faecalis (MB-9); conditions: organism known to inactivate; cited from earlier work
[16] = tested on: Alcaligenes viscosus (MB-12); conditions: organism known to inactivate; cited from earlier work
cephalosporinases [17] = conditions: background statement; cited from earlier work
[18] = tested on: gram-negative and gram-positive bacteria; conditions: background statement, cited from earlier work
[19] = tested on: Alcaligenes viscosus (MB-12); experiment: bacterial inactivation by washed cells; conditions: 4 hour incubation; assayed on B. subtilis (MB-964)
[20] = 2 hour incubation, assay organism B. subtilis 964
[21] = 2 hour incubation, assay organism V. percolans 1272
[22] = 2 hour incubation, assayed on V. percolans (MB-1272)
[23] = 4 hours incubation, assayed on B. subtilis (MB-964)

CO[C@@]1(NC(=O)CCC[C@@H](N)C(=O)O)C(=O)N2C(C(=O)O)=C(COC(N)=O)CS[C@@H]21 [Sodium Salt] gave an IC (25 mm zone) ([1]; Comamonas terrigena, read-out: concentration giving a 25 mm. zone, Example 11 concentrate at a dilution of 1:100) of 400 µg/mL.
In the case of CC1(C)S[C@@H]2[C@H](NC(=O)Cc3ccccc3)C(=O)N2[C@H]1C(=O)O [Penicillin G], the behaviour toward penicillinase (penicillinase) is given as “degraded to a form which is ineffective against most pathogens”.
With O=C(Cc1cccs1)N[C@@H]1C(=O)N2C(C(=O)[O-])=C(C[n+]3ccccc3)CS[C@H]12 [Cephaloridine] the “protection of infected mice” value (Proteus morganii 3202) was “failed to protect”, the ED50 (Proteus morganii 356 [2]) was 9,270 μg and the “Percent Inactivation After Incubation With Cell-Free Extract” value ([3]; aerobacter cloacae culture filtrate, 2 h) was 96%. The “Antibiotic Activity Remaining” value [3, 20] was under 10 µg/mL and the “Antibiotic Activity Remaining” value [3, 21] was under 10 µg/mL.
With CO[C@@]1(NC(=O)CCC[C@@H](N)C(=O)O)C(=O)N2C(C(=O)O)=C(COC(N)=O)CS[C@@H]21 [Antibiotic 842A] the ED50 (Aerobacter aerogenes) was 49 µg, the ED50 [4] was 566 µg and the ED50 (Escherichia coli) was 200 µg. It also gave an ED50 (Klebsiella pneumoniae AD) of 125 µg, an ED50 (Klebsiella pneumoniae B) of 125 µg and an ED50 (Paracolobactrum arizonae) of 125 µg. For the same compound, the ED50 (Pasteurella multocida) was 57 µg, the ED50 (Proteus mirabilis) was 276 µg and the ED50 (Proteus morganii 3202; subcutaneous route × two doses) was 276 µg. It also gave an ED50 (Proteus vulgaris) of 51 µg, an ED50 [5] of 103 µg and an ED50 (Salmonella typhosa) of 34 µg. For the same compound, the ED50 (Proteus morganii 356 [2]) was 273 µg, the “oral protection against infections” value ([6]; given orally) was “protects against infections due to Paracolobactrum arizonae 3270, Proteus vulgaris 1810, and Salmonella schottmuelleri 3010” and the “in vivo gram-negative potency compared with cephalothin” value [6] was “greater than cephalothin”. The “in vivo gram-negative potency compared with cephalothin” value ([6]; listed as 842A) was “generally increased gram-negative effect and an increased potency when compared to cephalothin”, the “in vivo activity / protection against infections” value ([6]; mouse, in vivo) was “effectiveness in vivo on Proteus morganii and an effectiveness against the following gram-negative bacteria: Escherichia coli, Proteus vulgaris, Proteus mirabilis, Proteus morganii, Salmonella schottmuelleri, Klebsiella pneumoniae AD, Klebsiella pneumoniae B, and Paracolobactrum arizonae; also recorded: protects against infection with three species of Proteus, two of Salmonella, one strain of Escherichia coli, two of Klebsiella and also against Paracolobactrum arizonae, Aerobacter aerogenes, Pasteurella multocida and Diplococcus pneumoniae 2400” and the “protection from gram-negative infection compared with known antibiotics” value ([6]; subcutaneously to mice) was “generally more active than cephalothin; also recorded: approximately equal to cephaloridine, ampicillin and chloromycetin”. For the same compound, the “eliminated in the urine” value [7] was “approximately 80%”, the percent inactivation (Escherichia coli 236; bacterial cells, 4 h) was 38% and the percent inactivation (Proteus mirabilis 241; bacterial cells, 4 h) was 5%. The percent inactivation (Proteus morganii 251; bacterial cells, 4 h) was 80%, the percent inactivation (Proteus morganii 356 [8]; bacterial cells, 4 h) was 69% and the resistance to cephalosporinases (cephalosporinases [9]) was “a greater resistance to cephalosporinases”. For the same compound, the “resistance to enzymatic degradation compared with cephalosporin C” value (cephalosporinases [9]) was “more resistant to enzymatic degradation than cephalosporin C”, the stability ([10]; above pH 7) was “unstable” and the stability ([10]; above pH 9.0) was “unstable”. The stability ([10]; pH 1.5) was “relatively stable”, the stability ([10]; pH 1.5, listed as 842A) was “stable” and the “antibacterial effect (in words)” value [11] was “enhanced activity against gram-negative microorganisms”. The bactericidal action [11] was “bactericidal”, the development of resistance [11] was “resistance to it develops slowly” and the “growth inhibition of gram-negative bacteria” value ([11]; in vitro) was “inhibits the growth of the following gram-negative bacteria: Escherichia coli, Proteus vulgaris, Alcaligenes faecalis, Brucella bronchiseptica, Salmonella gallinarum, Vibrio percolans and Xanthomonas vesicatoria”. For the same compound, the “growth inhibition of gram-positive bacteria” value ([11]; in vitro) was “inhibits the growth of the following gram-positive bacteria: Staphylococcus aureus, Sarcina lutea and Bacillus subtilis”, the “activity against Salmonella species” value (Salmonella) was “exhibits activity against Salmonella schottmuelleri 3010, S. gallinarum and S. typhosa” and the “Percent Inactivation After Incubation With Washed Bacterial Cells” value ([12]; 4 h) was 0%. For the same compound, the “Percent Inactivation After Incubation With Washed Bacterial Cells” value [13] was 54.4%, the “resistance to inactivation compared with cephalosporin C” value ([14]; A. faecalis, A. viscosus, E. coli 236, P. morganii 251 and 236 (so in the source), P. mirabilis 241) was “more resistant than cephalosporin C” and the “stability to bacterial inactivation” value ([14]; compared with cephalosporin C, cephaloridine and cephalothin, certain microorganisms) was “more stable than the latter against certain microorganisms”. The inhibition zone ([1]; Example 9 broth after 4 days, 0.5 inch discs) was 33 mm.
With CC(=O)OCC1=C(C(=O)O)N2C(=O)[C@@H](NC(=O)CCC[C@@H](N)C(=O)O)[C@H]2SC1 [Cephalosporin C] the “Percent Inactivation After Incubation With Cell-Free Extract” value [3, 22] was 96%, the percent inactivation (Escherichia coli 236; [23]) was over 99% and the percent inactivation (Proteus mirabilis 241; [23]) was 72%. For the same compound, the percent inactivation (Proteus morganii 251; [23]) was over 99%, the percent inactivation (Proteus morganii 356 [8]; [23]) was over 99% and the “inactivation of cephalosporin C” value [15] was “completely inactivate”. For the same compound, the “inactivation of cephalosporin C” value [16] was “completely inactivate”, the behaviour toward penicillinase (penicillinase) was “inherent resistance to penicillinase” and the behaviour toward cephalosporinases (cephalosporinases [17]) was “effective in destroying its activity”. For the same compound, the antibacterial activity [18] was “only moderately active”, the antibacterial activity ([18]; listed as cephalosporin C) was “relatively low antibacterial activity” and the “Percent Inactivation After Incubation With Washed Bacterial Cells” value ([14]; 3 hour incubation, assayed on B. subtilis (MB-964), 4 mg./ml.) was over 99%. For the same compound, the “Percent Inactivation After Incubation With Washed Bacterial Cells” value ([14]; 3 hour incubation, assayed on V. percolans (MB-1272)) was over 99%, the “Percent Inactivation After Incubation With Washed Bacterial Cells” value ([14]; 4 hour incubation, assayed on B. subtilis (MB-964)) was over 99% and the “Percent Inactivation After Incubation With Washed Bacterial Cells” value [19] was over 99%.
With CC(=O)OCC1=C(C(=O)O)N2C(=O)[C@@H](NC(=O)Cc3cccs3)[C@H]2SC1 [Cephalothin] the “protection of infected mice” value (Proteus morganii 3202) was “failed to protect”, the ED50 (Proteus morganii 356 [2]) was > 20,000 μg and the “Percent Inactivation After Incubation With Cell-Free Extract” value [3, 22] was 66%. For the same compound, the “Antibiotic Activity Remaining” value [3, 20] was 140 µg/mL, the “Antibiotic Activity Remaining” value [3, 21] was 85 µg/mL and the “Percent Inactivation After Incubation With Washed Bacterial Cells” value ([12]; 3 h) was 50%.

Reference: US4036696A, “Preparation of antibiotics by fermentation” (priority 1976, dated 1977)
